Measured values taken from PubChem BioAssay AID2060892 (Molecular Pharmacology Branch, DTP, NCI, 2025).
pIC50: −log10 of the molar value.

Test system: HOP-62 complex spheroids with HUVEC/MSC, viability
Experiment: Anticancer human tumor HOP-62 cell line growth inhibition [RAS];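 note: spheroids exposed to agents for seven days before readout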;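 for viability, T/C: 100% = DMSO vehicle control viability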
Conditions: for pIC50: curve of first compound; for viability, T/C: stronger effect = lower value
Description: RAS pathway inhibitors in Combinations in Complex Spheroids
A high-throughput screen of multi-cell type tumor spheroids was designed to identify active combinations of RAS pathway inhibitors and targeted small molecules. Complex spheroids include a stromal component modeled by human endothelial cells (HUVEC) and fibroblasts modeled by human mesenchymal stem cells (MSCs). The concentration ranges selected for each drug and investigational agent were based upon clinically achievable concentrations if the clinical Cmax of the agent was known.
Compounds. The drugs and investigational agents: abemaciclib (NSC768073), cobimetinib (NSC768068), divarasib (GDC6063, NSC841802), docetaxel (NSC628503), GDC-1971 (RLY-1971, NSC841576), gemcitabine (NSC613327), inavolisib (NSC800729), ipatasertib (NSC767898), KB-0742 (NSC834161), MRTX-1133 (NSC836407), osimertinib (NSC779217), RMC-4630 (NSC839698), RMC-6236 (NSC851965), RMC-6291 (NSC852671), Ro-3306 (NSC812927), sapanisertib (NSC764658), SN-38 (NSC673596), staurosporine (NSC755774), SY5609 (NSC837396), and tovorafenib (DAY101, NSC766906), were obtained from the National Cancer Institute (NCI) Developmental Therapeutics Program Chemical Repository. The FDA-approved anticancer drug set is available from the NCI Developmental Therapeutics Program. […] The stock solutions were prepared in dimethyl sulfoxide (DMSO, Sigma-Aldrich, St. Louis, MO, cat. D2650) at 800-fold the tested concentration and stored at -70 degrees C prior to their use. All drugs and investigational agents were tested over a range starting from a high concentration at or near the clinical Cmax and decreasing in half-log increments. If the clinical Cmax for an agent had not been determined, the highest concentration tested was 10 microM.
Cell Culture. All cells were maintained in an incubator at 37 degrees C and 5% CO2 with 95% humidity. The PDC lines were cultured according to standard operating procedures established by the NCI PDMR. All PDCs were thawed and cultured in Matrigel-coated flasks prepared with a working solution of 1X Ham's F-12 nutrient mix, without supplementation (Invitrogen, Waltham, MA, cat. 11765054), 100 U/mL penicillin-streptomycin (Invitrogen, cat. 15140122), and 2.5% Matrigel (Corning Inc., Corning, NY, cat. 354248) for the first three passages. The 362531-283-R-J2-PDC and 782815-120-R-J1-PDC lines were cultured in 6C/Colon 1B media, which includes advanced DMEM/F-12 (Thermo Fisher Scientific, cat. 12634028), 10 mM HEPES (Thermo Fisher Scientific, cat. 15630080), 1X GlutaMAX supplement (Thermo Fisher Scientific, cat. 35050061), 0.1 mg/mL primocin (InvivoGen, San Diego, CA, cat. ant-pm-2), 10% defined fetal bovine serum, heat inactivated (HyClone Laboratories Inc., Logan, UT, cat. SH30070.03HI), 50% L-WRN conditioned media (ATCC, cat. CRL-3276), 1.25 mM N-Acetyl-L-cysteine (Sigma-Aldrich, cat. A9165), 10 mM nicotinamide (Sigma-Aldrich, cat. N0636), 1X B-27 supplement (Thermo Fisher Scientific, cat. 17504044), 1X N-2 supplement (Thermo Fisher Scientific, cat. 17502048), 50 ng/mL human EGF (Thermo Fisher Scientific, cat. PHG0311), and 10 microM Y-27632 dihydrochloride (Tocris Bioscience, cat. 1254). The K12877-001-R-J1-PDC line was cultured in 6I media, which includes all 6C/Colon 1B media plus 10 ng/mL human FGF-10 (PeproTech, cat. 100-26), 1 ng/mL human FGF-2 (PeproTech, cat. 100-18B), 1 µM prostaglandin E2 (Tocris Bioscience, cat. 2296), […] hydrocortisone (Sigma-Aldrich, cat. H4001), and […] bovine insulin (Sigma-Aldrich, cat. I6634). The K86415-001-R-J1-PDC line was cultured in 6D media, which includes all 6C/Colon 1B media components minus the L-WRN conditioned media. The 485176-168-R4-J1-PDC was cultured in PANC media, which includes all 6C/Colon 1B media plus 100 ng/mL human FGF-10 (PeproTech, cat. 100-26), 500 nM SB-431542 (Selleckchem, cat. S1067), and 10 nM gastrin (Tocris Bioscience, cat. 3006). […]

[1] = second compound 0.0316 µM, first compound 0.0316 µM
[2] = second compound 0.0316 µM, first compound 0.1 µM
[3] = second compound 0.0316 µM, first compound 0.316 µM
[4] = second compound 0.0316 µM, first compound 1 µM
[5] = second compound 0.0316 µM, first compound 3.16 µM
[6] = second compound 0.0316 µM, first compound 10 µM
[7] = second compound 0.1 µM, first compound 0.0316 µM
[8] = second compound 0.1 µM, first compound 0.1 µM
[9] = second compound 0.1 µM, first compound 0.316 µM
[10] = second compound 0.1 µM, first compound 1 µM
[11] = second compound 0.1 µM, first compound 3.16 µM
[12] = second compound 0.1 µM, first compound 10 µM
[13] = second compound 0.316 µM, first compound 0.0316 µM
[14] = second compound 0.316 µM, first compound 0.1 µM
[15] = second compound 0.316 µM, first compound 0.316 µM
[16] = second compound 0.316 µM, first compound 1 µM
[17] = second compound 0.316 µM, first compound 3.16 µM
[18] = second compound 0.316 µM, first compound 10 µM
[19] = second compound 1 µM, first compound 0.0316 µM
[20] = second compound 1 µM, first compound 0.1 µM
[21] = second compound 1 µM, first compound 0.316 µM
[22] = second compound 1 µM, first compound 1 µM
[23] = second compound 1 µM, first compound 3.16 µM
[24] = second compound 1 µM, first compound 10 µM
[25] = second compound 3.16 µM, first compound 0.0316 µM
[26] = second compound 3.16 µM, first compound 0.1 µM
[27] = second compound 3.16 µM, first compound 0.316 µM
[28] = second compound 3.16 µM, first compound 1 µM
[29] = second compound 3.16 µM, first compound 3.16 µM
[30] = second compound 3.16 µM, first compound 10 µM
[31] = second compound 10 µM, first compound 0.0316 µM
[32] = second compound 10 µM, first compound 0.1 µM
[33] = second compound 10 µM, first compound 0.316 µM
[34] = second compound 10 µM, first compound 1 µM
[35] = second compound 10 µM, first compound 3.16 µM
[36] = second compound 10 µM, first compound 10 µM

SMILES: CC1(O)CCCC1n1c(=O)c(C(F)F)cc2cnc(NC3CCN(S(C)(=O)=O)CC3)nc21 (stereo unspecified) + C#Cc1c(F)ccc2cc(O)cc(-c3ncc4c(N5CC6CCC(C5)N6)nc(OCC56CCCN5CC(F)C6)nc4c3F)c12
- pIC50 (second compound 0.0316 µM): 6.42
- pIC50 (second compound 0.1 µM): 6.40
- pIC50 (second compound 0.316 µM): 6.46
- pIC50 (second compound 1 µM): 6.49
- pIC50 (second compound 3.16 µM): 6.84
- pIC50 (second compound 10 µM): > 7.50
- viability, T/C [1]: 87.9%
- viability, T/C [2]: 53.1%
- viability, T/C [3]: 43.3%
- viability, T/C [4]: 40.5%
- viability, T/C [5]: 47.8%
- viability, T/C [6]: 0.9%
- viability, T/C [7]: 91.3%
- viability, T/C [8]: 52.2%
- viability, T/C [9]: 45.3%
- viability, T/C [10]: 48.8%
- viability, T/C [11]: 35.7%
- viability, T/C [12]: 1.45%
- viability, T/C [13]: 91.4%
- viability, T/C [14]: 50.7%
- viability, T/C [15]: 38%
- viability, T/C [16]: 42%
- viability, T/C [17]: 42.2%
- viability, T/C [18]: 1.44%
- viability, T/C [19]: 84.7%
- viability, T/C [20]: 53.6%
- viability, T/C [21]: 37.2%
- viability, T/C [22]: 45.2%
- viability, T/C [23]: 40%
- viability, T/C [24]: 3.73%
- viability, T/C [25]: 66.6%
- viability, T/C [26]: 47.9%
- viability, T/C [27]: 34%
- viability, T/C [28]: 41.4%
- viability, T/C [29]: 27.6%
- viability, T/C [30]: 1.45%
- viability, T/C [31]: 42%
- viability, T/C [32]: 37.3%
- viability, T/C [33]: 27.8%
- viability, T/C [34]: 29.4%
- viability, T/C [35]: 32.5%
- viability, T/C [36]: 1.15%

SMILES: CCC(CC)c1cc(NC2CCC(N)C2)n2nccc2n1 (stereo unspecified) + C#Cc1c(F)ccc2cc(O)cc(-c3ncc4c(N5CC6CCC(C5)N6)nc(OCC56CCCN5CC(F)C6)nc4c3F)c12
- pIC50 (second compound 0.0316 µM): 5.78
- pIC50 (second compound 0.1 µM): 5.73
- pIC50 (second compound 0.316 µM): 5.74
- pIC50 (second compound 1 µM): 5.76
- pIC50 (second compound 3.16 µM): 5.81
- pIC50 (second compound 10 µM): 5.95
- viability, T/C [1]: 108%
- viability, T/C [2]: 111%
- viability, T/C [3]: 107%
- viability, T/C [4]: 88.2%
- viability, T/C [5]: 0.7%
- viability, T/C [6]: 0.37%
- viability, T/C [7]: 112%
- viability, T/C [8]: 115%
- viability, T/C [9]: 118%
- viability, T/C [10]: 107%
- viability, T/C [11]: 1.36%
- viability, T/C [12]: 1.21%
- viability, T/C [13]: 122%
- viability, T/C [14]: 105%
- viability, T/C [15]: 111%
- viability, T/C [16]: 101%
- viability, T/C [17]: 0.69%
- viability, T/C [18]: 0.93%
- viability, T/C [19]: 108%
- viability, T/C [20]: 104%
- viability, T/C [21]: 99.9%
- viability, T/C [22]: 96.7%
- viability, T/C [23]: 0.48%
- viability, T/C [24]: 0.25%
- viability, T/C [25]: 83.7%
- viability, T/C [26]: 90.8%
- viability, T/C [27]: 88.3%
- viability, T/C [28]: 79.5%
- viability, T/C [29]: 0.74%
- viability, T/C [30]: 1.33%
- viability, T/C [31]: 48.1%
- viability, T/C [32]: 47.3%
- viability, T/C [33]: 56%
- viability, T/C [34]: 70.2%
- viability, T/C [35]: 0.95%
- viability, T/C [36]: 0.56%

SMILES: CCN1CCN(Cc2ccc(Nc3ncc(F)c(-c4cc(F)c5nc(C)n(C(C)C)c5c4)n3)nc2)CC1 + C#Cc1c(F)ccc2cc(O)cc(-c3ncc4c(N5CC6CCC(C5)N6)nc(OCC56CCCN5CC(F)C6)nc4c3F)c12
- pIC50 (second compound 0.0316 µM): < 6.00
- pIC50 (second compound 0.1 µM): < 6.00
- pIC50 (second compound 0.316 µM): < 6.00
- pIC50 (second compound 1 µM): < 6.00
- pIC50 (second compound 3.16 µM): < 6.00
- pIC50 (second compound 10 µM): > 8.50
- viability, T/C (second compound 0.0316 µM, first compound 0.00316 µM): 119%
- viability, T/C (second compound 0.0316 µM, first compound 0.01 µM): 105%
- viability, T/C [1]: 101%
- viability, T/C [2]: 90.6%
- viability, T/C [3]: 95.8%
- viability, T/C [4]: 88.1%
- viability, T/C (second compound 0.1 µM, first compound 0.00316 µM): 111%
- viability, T/C (second compound 0.1 µM, first compound 0.01 µM): 103%
- viability, T/C [7]: 89.8%
- viability, T/C [8]: 91.6%
- viability, T/C [9]: 89.3%
- viability, T/C [10]: 66.2%
- viability, T/C (second compound 0.316 µM, first compound 0.00316 µM): 109%
- viability, T/C (second compound 0.316 µM, first compound 0.01 µM): 102%
- viability, T/C [13]: 96.3%
- viability, T/C [14]: 86%
- viability, T/C [15]: 90.2%
- viability, T/C [16]: 81.2%
- viability, T/C (second compound 1 µM, first compound 0.00316 µM): 106%
- viability, T/C (second compound 1 µM, first compound 0.01 µM): 99.6%
- viability, T/C [19]: 90.7%
- viability, T/C [20]: 82.3%
- viability, T/C [21]: 83.2%
- viability, T/C [22]: 67.7%
- viability, T/C (second compound 3.16 µM, first compound 0.00316 µM): 84.5%
- viability, T/C (second compound 3.16 µM, first compound 0.01 µM): 76%
- viability, T/C [25]: 69%
- viability, T/C [26]: 57.9%
- viability, T/C [27]: 62.5%
- viability, T/C [28]: 57.7%
- viability, T/C (second compound 10 µM, first compound 0.00316 µM): 46.4%
- viability, T/C (second compound 10 µM, first compound 0.01 µM): 48.3%
- viability, T/C [31]: 38.3%
- viability, T/C [32]: 45.7%
- viability, T/C [33]: 45.2%
- viability, T/C [34]: 42.5%
